Experimental data from patent publication US7745152B2, “Method for determining genotoxicity” (priority 2004, dated 2010).
Values joined by “and” are separate entries in the source; they are usually repeats but may differ in a detail not shown here. Equal entries are not always repeated.

Key:
C2C12 cells [1] = tested on: C2C12 cells
Procedure: (§1) Three independent replicates were generated for each drug and time point. Sample processing was carried out according to protocols described in the Affymetrix Expression Analysis Technical Manual. Briefly, total RNA was isolated from cells by the acid guanidinium thiocyanate-phenol-chloroform extraction method (Trizol®, Invitrogen, Carlsbad, Calif.). Twice purified poly(A+) RNA was isolated and reverse transcribed using a T7-promoter coupled oligo(dT) primer, followed by in vitro transcription. The labeled samples were applied to the Affymetrix Murine Genome MOE430 set and were hybridized overnight at 45° C./60 rpm, washed using a FS450 Fluidics station, and scanned on a GS3000 scanner. The resulting image files were analyzed using Affymetrix software (Microarray Analysis Suite version 5.0).
(§2) To measure the effect of drug treatment on cellular gene expression, replicate data obtained from each drug and time point were compared with replicates for vehicle-matched controls using the Student t-test. The gene expression levels were Log transformed before applying the Student t-test. The fold change of the average expression level between the control and drug-treated cells was also calculated. […] A gene was considered expressed if the Affymetrix software determined that the gene was “present” in two out of the three replicates. This ensured that true expression changes were identified, and could be distinguished from background variability. Second, the calculated expression change for each of five tested drugs was at least 2 fold, and the calculated p-value for the expression change using the Student t-test was less than 0.01.

C2C12 cells [2] = test: C2C12 myogenic differentiation after MMS exposure with siRNA transfection; conditions: 75 μM MMS, 24 hours, then differentiation media, 72 hours
C2C12 cells [3] = test: Genomic assay: gene expression analysis (Affymetrix Murine Genome MOE430) in C2C12 cells induced to differentiate
Procedure: as §1, §2

C2C12 cells [4] = conditions: mouse

COS(C)(=O)=O [Methanesulfonate methyl ester (MMS), Methanesulfonate methyl ester]
Fold change in expression: Ephx1, Epoxide hydrolase 1 (microsomal xenobiotic hydrolase) (C2C12 cells [1]): 2.10 fold
Fold change in expression: Hgf, Hepatocyte growth factor (scatter factor) (C2C12 cells [1]): 2.20 fold
C2C12 cell differentiation into myotubes after genotoxin exposure (C2C12 cells [2]): completely inhibited
Fold change in expression: 0610013D04 Rik, RIKEN cDNA (C2C12 cells [3]): 2.60 fold
Fold change in expression: 1600013K19 Rik, RIKEN cDNA (C2C12 cells [3]): 0.62 fold
Fold change in expression: 2610005B21 Rik, RIKEN cDNA (C2C12 cells [3]): 0.53 fold
Fold change in expression: 2610019I03 RIK, RIKEN cDNA (C2C12 cells [3]): 0.43 fold
Fold change in expression: 2610509G12 Rik, RIKEN cDNA (C2C12 cells [3]): 0.55 fold
Fold change in expression: 2810417H13 Rik, RIKEN cDNA (C2C12 cells [3]): 0.48 fold
Fold change in expression: 4833427G06 Rik, RIKEN cDNA (C2C12 cells [3]): 3.70 fold
Fold change in expression: 6530401L14 Rik, RIKEN cDNA (C2C12 cells [3]): 0.39 fold
Fold change in expression: 9030617O03 Rik, RIKEN cDNA (C2C12 cells [3]): 2.40 fold
Fold change in expression: Anxa8, Annexin A8 (C2C12 cells [3]): 2.50 fold
Fold change in expression: Asflb, ASF1 anti-silencing function 1 homolog B (Saccharomyces) (C2C12 cells [3]): 0.47 fold
Fold change in expression: Birc5, Baculoviral IAP repeat-containing 5 (C2C12 cells [3]): 0.51 fold
Fold change in expression: Brca1, Breast cancer 1 (C2C12 cells [3]): 0.47 fold
Fold change in expression: Calmbp1, Calmodulin binding protein 1 (C2C12 cells [3]): 0.30 fold
Fold change in expression: Capn6, Calpain 6 (C2C12 cells [3]): 0.60 fold
Fold change in expression: Ccna2, Cyclin A2 (C2C12 cells [3]): 0.46 fold
Fold change in expression: Ccng1, Cyclin G1 (C2C12 cells [3]): 2.40 fold
Fold change in expression: Cilp, Cartilage intermediate layer pro (C2C12 cells [3]): 0.57 fold
Fold change in expression: Cks2, CDC28 protein kinase regulatory subunit 2 (C2C12 cells [3]): 0.59 fold
Fold change in expression: D4Ertd421e, DNA segment, Chr 4, ERATO Doi 421, expressed (C2C12 cells [3]): 0.44 fold
Fold change in expression: Dda3-pending, Differential display and activated by p53 (C2C12 cells [3]): 3.70 fold
Fold change in expression: E2f7, E2F transcription factor 7 (C2C12 cells [3]): 0.55 fold
Fold change in expression: E030024M05 Rik, RIKEN cDNA (C2C12 cells [3]): 2.00 fold
Fold change in expression: E130315B21 Rik, RIKEN cDNA (C2C12 cells [3]): 0.64 fold
Fold change in expression: Fbxo5, f-box only protein 31 (C2C12 cells [3]): 0.42 fold
Fold change in expression: Foxm1, Forkhead box M1 (C2C12 cells [3]): 0.41 fold
Fold change in expression: Gmnn, Geminin (C2C12 cells [3]): 0.54 fold
Fold change in expression: Gnpi, Glucosamine-6-phosphate deaminase (C2C12 cells [3]): 1.60 fold
Fold change in expression: Hmgb2, High mobility group box 2 (C2C12 cells [3]): 0.56 fold
Fold change in expression: Hmgb3, High mobility group box 3 (C2C12 cells [3]): 0.45 fold
Fold change in expression: Hmmr, Hyaluronan mediated motility receptor (RHAMM) (C2C12 cells [3]): 0.36 fold
Fold change in expression: Kifl1, Kinesin 11 (C2C12 cells [3]): 0.43 fold
Fold change in expression: Lek1, Leucine, glutamic acid, lysine family 1 protein (C2C12 cells [3]): 0.36 fold
Fold change in expression: Ly6e, Lymphocyte antigen 6 complex, locus E (C2C12 cells [3]): 1.80 fold
Fold change in expression: M-phosph1, M-phase phosphoprotein (C2C12 cells [3]): 0.27 fold
Fold change in expression: MGC:32192, Mus musculus cDNA clone MGC: 32192 IMAGE: 5006129 (C2C12 cells [3]): 0.46 fold
Fold change in expression: Mad2l1, MAD2 (mitotic arrest deficient, homolog)-like 1 (yeast) (C2C12 cells [3]): 0.43 fold
Fold change in expression: Mad3, Max dimerization protein 3 (C2C12 cells [3]): 0.52 fold
Fold change in expression: Mcm3, Minichromosome maintenance deficient 3 (Saccharomyces) (C2C12 cells [3]): 0.56 fold
Fold change in expression: Mcmd4, Minichromosome maintenance deficient 4 homolog (C2C12 cells [3]): 0.57 fold
Fold change in expression: Mki67, Antigen identified by MAb Ki67 (C2C12 cells [3]): 0.31 fold
Fold change in expression: Mmhead, Mus musculus 15 day embryo head cDNA clone (C2C12 cells [3]): 3.00 fold
Fold change in expression: Nos3, Nitric oxide synthase 3, endothelial cell (C2C12 cells [3]): 1.90 fold
Fold change in expression: Np95, Nuclear protein 95 (C2C12 cells [3]): 0.41 fold
Fold change in expression: Nusap1, Nucleolar and spindle associated protein 1 (C2C12 cells [3]): 0.48 fold
Fold change in expression: Osbp16, Oxysterol binding protein-like 6 (C2C12 cells [3]): 2.20 fold
Fold change in expression: Pbk, PDZ binding kinase (C2C12 cells [3]): 0.46 fold
Fold change in expression: Pcna, Proliferating cell nuclear antigen (C2C12 cells [3]): 0.60 fold
Fold change in expression: Phex, Phosphate regulating neutral endopeptidase (X chromosome) (C2C12 cells [3]): 2.20 fold
Fold change in expression: Plf, Proliferin (C2C12 cells [3]): 2.60 fold
Fold change in expression: Pola1, DNA polymerase alpha 1, 180 kDa (C2C12 cells [3]): 0.37 fold
Fold change in expression: Prc1, Protein regulator of cytokinesis 1 (C2C12 cells [3]): 0.44 fold
Fold change in expression: Prelp, Proline arginine-rich end leucine-rich repeat (C2C12 cells [3]): 0.19 fold
Fold change in expression: Prim1, DNA primase, p49 subunit (C2C12 cells [3]): 0.51 fold
Fold change in expression: Rad51ap1, RAD51-associated protein 1 (C2C12 cells [3]): 0.45 fold
Fold change in expression: Rbl1, Retinoblastoma-like 1 (p107) (C2C12 cells [3]): 0.59 fold
Fold change in expression: Serpine1, Ser (or Cys) proteinase inhibitor, clade E, member 1 (C2C12 cells [3]): 0.58 fold
Fold change in expression: Sesn2, Sestrin 2 (C2C12 cells [3]): 5.30 fold
Fold change in expression: Shcbp1, Shc SH2-domain binding protein 1 (C2C12 cells [3]): 0.37 fold
Fold change in expression: Slc19a2, Solute carrier family 19 (thiamine transporter), member 2 (C2C12 cells [3]): 2.70 fold and 2.30 fold
Fold change in expression: Slc35a5, Solute carrier family 35, member A5 (C2C12 cells [3]): 2.60 fold
Fold change in expression: Smc2l1, SMC2 structural maintenance of chromosomes 2-like 1 (C2C12 cells [3]): 0.49 fold
Fold change in expression: Stk18, Serine/threonine kinase 18 (C2C12 cells [3]): 0.49 fold
Fold change in expression: Tacc3, Transforming, acidic coiled-coil containing protein 3 (C2C12 cells [3]): 0.48 fold
Fold change in expression: Tagln, Transgelin (smooth muscle 22 protein) (C2C12 cells [3]): 0.47 fold
Fold change in expression: Tk1, Thymidine kinase 1 (C2C12 cells [3]): 0.46 fold
Fold change in expression: Top2a, Topoisomerase (DNA) II alpha (C2C12 cells [3]): 0.37 fold
Fold change in expression: Trp53inp1, Transformation related protein, 53 inducible nuclear protein 1 (C2C12 cells [3]): 2.90 fold
Fold change in expression: Usp30, Ubiquitin specific protease 30 (C2C12 cells [3]): 3.70 fold
Fold change in expression: Wig1, Wild-type p53-induced gene 1 (C2C12 cells [3]): 2.40 fold
Lowest effective dose (C2C12 cells [4]): 0.002 µg/mL
